Our source for the melting point values is US20030232860A1, “Medicine comprising dicyanopyridine derivative” (priority 2000, published 2003).

Counter-ions that a name gives are not always drawn.

The term melting point denotes the temperature, or range, at which the solid turns liquid. Regarding `COc1nc(N)c(C#N)c(C2CCOC2)c1C#N` (centres unmarked) [Example 163], the melting point fell in the range of 205 to 206 °C.
Take `N#Cc1c(N)nc(OCc2cccnc2)c(C#N)c1Cc1ccccc1` [Example 436, 2-amino-4-benzyl-6-(pyridin-3-ylmethoxy)pyridine-3,5-dicarbonitrile]: the melting point lay in the range of 204 to 205 °C.
The same measure for `COc1nc(N)c(C#N)c(-c2ccc(N)cc2)c1C#N.Cl.O` (hydrate or solvate) [Example 20, 2-amino-(4-aminophenyl)-6-methoxypyridine-3,5-dicarbonitrile monohydrochloride monohydrate]: greater than 300 °C.
For `COc1nc(NC(=O)N(C)C)c(C#N)c(-c2ccccc2F)c1C#N` [Example 71, 3-[3,5-dicyano-4-(2-fluorophenyl)-6-methoxypyridin-2-yl]-1,1-dimethylurea] the value was 82 to 86 °C; for `COCC(=O)Nc1nc(OCC(F)F)c(C#N)c(-c2ccccc2F)c1C#N` (hydrate or solvate) [Example 61, N-[3,5-dicyano-6-(2,2-difluoroethoxy)-4-(2-fluorophenyl)pyridin-2-yl]-2-metho xyacetamide], 108 to 109 °C; for `COc1nc(NC(=O)c2ccco2)c(C#N)c(-c2ccccc2F)c1C#N` [Example 415, N-[3,5-dicyano-4-(2-fluorophenyl)-6-methoxypyridin-2-yl]furan-2-carboxamide], 222 to 223 °C.
In the case of `N#Cc1c(N)nc(SCc2cccnc2)c(C#N)c1Cc1ccccc1` [Example 438, 2-amino-4-benzyl-6-[(pyridin-3-ylmethyl)sulfanyl]pyridine-3,5-dicarbonitrile], the melting point lay in the range of 259 to 260 °C.
The same measure for `N#Cc1c(N)nc(OCCOC(=O)[C@@H](N)Cc2ccccc2)c(C#N)c1-c1ccccc1` (as salt: hydrochloride) (hydrate or solvate) [Example 15, 2-[(2-amino-3,5-dicyano-4-phenylpyridin-6-yl)oxy]ethyl (S)-2-amino-3-phenylpropanoate monohydrochloride monohydrate]: 161 to 162 °C.
For `CSc1nc(N)c(C#N)c(-c2ccsc2)c1C#N` [Example 7, 2-amino-6-methylsulfanyl-4-(3-thienyl)pyridine-3,5-dicarbonitrile] the value was 241 to 243 °C.
On to `N#Cc1c(N)nc(Oc2ccccc2CN)c(C#N)c1-c1ccccc1` (as salt: HCl) [Example 201, 2-amino-6-(2-aminomethylphenoxy)-4-phenylpyridine-3,5-dicarbonitrile], for which the melting point was greater than 300 °C.
For `CSc1nc(N)c(C#N)c(-c2ccco2)c1C#N` [Example 84] the value was 229 to 230 °C; for `CN(C)c1cccc(-c2c(C#N)c(N)nc(SCc3cccnc3)c2C#N)c1.Cl.Cl`, 243 to 245 °C.
For `N#Cc1c(N)nc(SCc2ccccc2)c(C#N)c1-c1ccccc1` [Example 217] the value was 212 to 213 °C; for `COCCC(=O)Nc1nc(OC)c(C#N)c(-c2ccccc2F)c1C#N` [Example 404, N-[3,5-dicyano-4-(2-fluorophenyl)-6-methoxypyridin-2-yl]-3-methoxypropionamide], 115 to 116 °C.
`CSc1nc(N)c(C#N)c(-c2ccc(C(=O)O)cc2)c1C#N` [Example 29, 4-(2-amino-3,5-dicyano-6-methylsulfanylpyridin-4-yl)benzoic acid]: the melting point lay in the range of 288 to 290 °C.
The same measure for `COc1nc(N(C(=O)Oc2ccccc2)C(=O)Oc2ccccc2)c(C#N)c(-c2ccccc2F)c1C#N`: 156 to 158 °C.
For `COc1nc(NC(=O)CCc2ccccc2)c(C#N)c(-c2ccccc2F)c1C#N` [Example 402, N-[3,5-dicyano-4-(2-fluorophenyl)-6-methoxypyridin-2-yl]-3-phenylpropionamide] the value was 183 to 184 °C; for `COc1nc(N)c(C#N)c(C2CCNCC2)c1C#N` (as salt: hydrochloride) (hydrate or solvate), 240 °C (dec.); for `N#Cc1cc(C#N)c(Oc2ccccc2)nc1N` [Example 426], 235 to 237 °C.
For `CNc1nc(OC)c(C#N)c(-c2ccccc2)c1C#N` [Example 360] the value was 216 to 218 °C.
The compound `COc1nc(NC(C)=O)c(C#N)c(-c2cccs2)c1C#N` [Example 19, N-(3,5-dicyano-6-methoxy-4-thiophen-2-ylpyridin-2-yl)acetamide] yielded a melting point of 230 to 233 °C.
For `CSc1nc(Br)c(C#N)c(-c2cccs2)c1C#N` [Example 24, 2-bromo-6-methylsulfanyl-4-thiophen-2-ylpyridine-3,5-dicarbonitrile] the value was 169 to 171 °C; for `N#Cc1c(N)nc(SCc2ccccc2)c(C#N)c1-c1cccs1` [Example 386], 208 to 209 °C.
`N#Cc1c(N)nc(O)c(C#N)c1-c1ccc(N)cc1` [Example 21, 2-amino-(4-aminophenyl)-6-hydroxypyridine-3,5-dicarbonitrile] yielded a melting point greater than 300 °C.
The same measure for `N#Cc1c(N)nc(Cl)c(C#N)c1-c1ccccc1` [Example 9, 2-amino-6-chloro-4-phenylpyridine-3,5-dicarbonitrile]: greater than 300 °C; for `COc1nc(NC(=O)C2CC2)c(C#N)c(-c2ccccc2F)c1C#N` [Example 70, N-[3,5-dicyano-4-(2-fluorophenyl)-6-methoxypyridin-2-yl] cyclopropanecarboxamide]: 203 to 204 °C.
For `COc1nc(NC(=O)NCCO)c(C#N)c(-c2ccccc2F)c1C#N` [Example 420, 1-[3,5-dicyano-4-(2-fluorophenyl)-6-methoxypyridin-2-yl]-3-(2-hydroxyethyl)ur ea] the value was 140 to 144 °C; for `CSc1nc(NS(C)(=O)=O)c(C#N)c(-c2ccsc2)c1C#N` [Example 45, N-(3,5-dicyano-6-methylsulfanyl-4-thiophen-3-ylpyridin-2-yl)methanesulfonamide], greater than 250 °C; for `COc1ncc(C#N)c(-c2ccccc2)c1C#N` [Example 26, 2-methoxy-4-phenylylpyridine-3,5-dicarbonitrile], 148 to 149 °C.
The same measure for `COc1nc(N)c(C#N)c(-c2ccc[nH]2)c1C#N` [Example 169]: 198 to 199 °C.
With `CSc1nc(N)c(C#N)c(-c2c[nH]cn2)c1C#N` (as salt: HCl) (hydrate or solvate) [Example 82], the melting point was 272 to 273 °C (dec.).
The same measure for `COc1nc(NC(=O)c2ccccn2)c(C#N)c(-c2ccccc2F)c1C#N` [Example 412, N-[3,5-dicyano-4-(2-fluorophenyl)-6-methoxypyridin-2-yl]pyridine-2-carboxamide]: 219 to 220 °C.
The same measure for `CCCCCC(=O)Nc1nc(OC)c(C#N)c(-c2ccccc2F)c1C#N` [Example 407, N-[3,5-dicyano-4-(2-fluorophenyl)-6-methoxypyridin-2-yl]hexanamide]: 139 to 141 °C.
On to `N#Cc1c(N)nc(N2CCNCC2)c(C#N)c1-c1ccccc1` (as salt: HCl) [Example 210], for which the melting point is 260 to 263 °C (dec.).
The same measure for `COc1nc(N)c(C#N)c(-c2ccc3cc[nH]c3c2)c1C#N` (as salt: salt) (hydrate or solvate) [Example 171]: 270 to 272 °C.
